Measured values taken from patent US20250199004A1, “METHODS OF EVALUATING TREATMENT OUTCOME IN HIGH GRADE SEROUS OVARIAN CANCER” (THE REGENTS OF THE UNIVERSITY OF COLORADO, A BODY CORPORATE, priority 2018, published 2025).
Like-named read-outs stand apart in the source and are kept apart here.

How the values were obtained:
PEO1 cells = assay: Cisplatin dose-response, cell viability by MTT assay; format: cell-based, human; conditions: 48 hours
Description: (§1) A majority of HGSOC patients treated with platinum-based (i.e., carboplatin) chemotherapy develop chemoresistance. […] To test this hypothesis, CBX2 knockdown OVCAR4, PEO1, and OVCAR8 cells were grown in an adherent setting for 24 h and subsequently treated with increasing doses of cisplatin.
(§2) The panels in FIG. 7A and FIG. 7B are as follows. Panel A: shControl (shCtrl), shCBX2 #1 and #2 OVCAR8 cells grown in adherent were dosed with cisplatin for 24 hours. Treated cells were utilized for a MTT assay to assess cell viability. Panel B: Same as A, but adherent PEO1 cells were dosed with cisplatin for 48 hours. Panel C: Same as A, but OVCAR8 cells in suspension were dosed with cisplatin for 24 hours. Panel D: Same as A, but PEO1 cells in suspension were dosed with cisplatin for 48 hours. IC50 values were calculated with Prism and are indicated.
PEO1 and OVCAR4 cells were plated in 96-well plates in both adherent (4000 cells per well) and suspension (6000 cells per well) environments, as described above. These cells were treated over 24 h with increasing concentrations of Cisplatin (0.5-100 μM). 1640 RPMI media and media with 0.9% NaCl were used for control and vehicle control, respectively. Cell viability was assessed using the 3-(4,5-dimethylthiazol-2-yl)-5-(3-carboxymethoxyphenyl)-2-(4-sulfophenyl)-2H-tetrazolium (MTT) assay (Promega, Madison, WI). […]

OVCAR4 cells [1] = assay: Annexin V/PI apoptosis assay; format: cell-based, human; conditions: OVCAR4 adherent, loss of CBX2 (shCBX2 #1 or #2) vs shControl, cisplatin 10 μM
Description: (§3) Panels of FIG. 6 are as follows. Panel A: OVCAR4 shControl, shCBX2 #1, and shCBX2 #2 in 96-well plates treated over 24 h with increasing dose of cisplatin (0.5-100 μM). Percent cell viability was measured using the MTT assay and the half maximal inhibitory concentration (IC50) calculated. Panel B: Similarly to (Panel A), OVCAR4 knockdown cell lines were grown in low adherent 96-well plates (forced suspension) and treated with increasing doses of cisplatin over 24 h and percent cell viability measured with MTT for calculation of IC50. Panel C: Annexin/V apoptosis assay of OVCAR4 cells grown in adherent setting with shControl, shCBX2 #1 or #2 treated with cisplatin (10 μM) compared to untreated control. Percent Annexin positive cells are shown. Statistical test=ANOVA. Error bars=S.E.M.
Following 72 h of growth in adherent and suspended states, OVCAR4 and PEO1 cells were harvested and washed in PBS. Alexa Fluor™ 488 Conjugated AnnexinV and Propidium Iodide (PI) (Thermo Fisher Scientific) staining were performed following manufacturer's protocol.

OVCAR8 cells = assay: Cisplatin dose-response, cell viability by MTT assay; format: cell-based, human; conditions: 24 hours
Description: as §2, with “A majority of HGSOC patients treated with platinum-based (i.e., carboplatin) chemotherapy develop chemoresistance. […] To test this hypothesis, CBX2 knockdown OVCAR4, PEO1, and OVCAR8 cells were grown in an adherent setting for 24 h and subsequently treated with increasing doses of cisplatin. […] The” for “The”

OVCAR4 cells [2] = conditions: cells allowed to recover 72 h following cisplatin treatment; read-out: OVCAR4 cisplatin IC50 reported by Haley et al.; cited from earlier work
OVCAR4 cells [3] = assay: Cisplatin dose-response, cell viability by MTT assay; format: cell-based, human; conditions: for IC50: 24 h, MTT
Description: as §1
CBX2 knockdown OVCAR4, PEO1, and OVCAR8 cells were grown in suspension and dosed with cisplatin. […] Although not as robust as OVCAR4 cells, CBX2knockdown also sensitized OVCAR8 and PEO1 cells to cisplatin (FIG. 7B Panels C-D). […] In addition, we further confirmed that in OVCAR4, loss of CBX2 lead to increased cisplatin-induced apoptosis measured with Annexin V/PI (FIG. 6 Panel C).
as §3
PEO1 and OVCAR4 cells were plated in 96-well plates in both adherent (4000 cells per well) and suspension (6000 cells per well) environments, as described above. These cells were treated over 24 h with increasing concentrations of Cisplatin (0.5-100 μM). 1640 RPMI media and media with 0.9% NaCl were used for control and vehicle control, respectively. Cell viability was assessed using the 3-(4,5-dimethylthiazol-2-yl)-5-(3-carboxymethoxyphenyl)-2-(4-sulfophenyl)-2H-tetrazolium (MTT) assay (Promega, Madison, WI). Means of at least five wells are reported and experiments were independently repeated in triplicate. Representative dose-response curves are shown.

Q: Which “chemosensitivity to cisplatin, shCBX2 cell lines vs shControl cells” value (from here on “chemosensitivity … vs shControl cells”) (PEO1 cells; PEO1, adherent) does the source give for N.N.[Cl][Pt][Cl] [cisplatin] here?
A: significantly more chemosensitive

Q: And the “sensitivity to cisplatin after CBX2 knockdown” value (PEO1 cells; PEO1, suspension)?
A: sensitized

Q: What about the “cisplatin-induced apoptosis measured with Annexin V/PI” value (OVCAR4 cells [1]) of the same molecule?
A: increased

Q: And the “chemosensitivity … vs shControl cells” value (OVCAR8 cells; OVCAR8, adherent)?
A: significantly more chemosensitive

Q: What about the “sensitivity to cisplatin after CBX2 knockdown” value (OVCAR8 cells; OVCAR8, suspension) of the same molecule?
A: sensitized

Q: What about the IC50 (OVCAR4 cells [2]) of the same molecule?
A: ~6 µM

Q: What about the “chemosensitivity … vs shControl cells” value (OVCAR4 cells [3]; OVCAR4, adherent) of the same molecule?
A: significantly more chemosensitive

Q: What about the “increase in the cisplatin IC50 in suspension cells compared to the adherent cells” value (OVCAR4 cells [3]; OVCAR4 cells) of the same molecule?
A: 4.47 fold

Q: And the IC50 (OVCAR4 cells [3]; OVCAR4 control with intact CBX2, adherent)?
A: 38.7 µM

Q: What about the IC50 (OVCAR4 cells [3]; OVCAR4 control with intact CBX2, suspension) of the same molecule?
A: 170 µM

Q: What about the IC50 (OVCAR4 cells [3]; OVCAR4 shCBX2 #1 knockdown cells, adherent) of the same molecule?
A: 12.7 µM

Q: What about the IC50 (OVCAR4 cells [3]; OVCAR4 shCBX2 #1 knockdown cells, suspension) of the same molecule?
A: 7.19 µM

Q: What about the IC50 (OVCAR4 cells [3]; OVCAR4 shCBX2 #2 knockdown cells, adherent) of the same molecule?
A: 15.4 µM

Q: What about the IC50 (OVCAR4 cells [3]; OVCAR4 shCBX2 #2 knockdown cells, suspension) of the same molecule?
A: 18.1 µM
